According to publication PMC10534724, “Interaction of ALK Inhibitors with Polyspecific Organic Cation Transporters and the Impact of Substrate-Dependent Inhibition on the Prediction of Drug–Drug Interactions” (Pharmaceutics, 2023):
Where two headings read alike, the source gives them in different places.

Experiments:
Assay type in all cases: in vitro ADME
hOCT1 = biological target: T1, hOCT1 (Homo sapiens, UniProt O15245); test: Inhibition of hOCT1-mediated substrate uptake in transfected HEK293 cells; details: for In vivo DDI study recommendation, hOCT1: FDA-recommended criteria
T1 construct: expressed in transfected cells
T1 sequence (O15245 1-554): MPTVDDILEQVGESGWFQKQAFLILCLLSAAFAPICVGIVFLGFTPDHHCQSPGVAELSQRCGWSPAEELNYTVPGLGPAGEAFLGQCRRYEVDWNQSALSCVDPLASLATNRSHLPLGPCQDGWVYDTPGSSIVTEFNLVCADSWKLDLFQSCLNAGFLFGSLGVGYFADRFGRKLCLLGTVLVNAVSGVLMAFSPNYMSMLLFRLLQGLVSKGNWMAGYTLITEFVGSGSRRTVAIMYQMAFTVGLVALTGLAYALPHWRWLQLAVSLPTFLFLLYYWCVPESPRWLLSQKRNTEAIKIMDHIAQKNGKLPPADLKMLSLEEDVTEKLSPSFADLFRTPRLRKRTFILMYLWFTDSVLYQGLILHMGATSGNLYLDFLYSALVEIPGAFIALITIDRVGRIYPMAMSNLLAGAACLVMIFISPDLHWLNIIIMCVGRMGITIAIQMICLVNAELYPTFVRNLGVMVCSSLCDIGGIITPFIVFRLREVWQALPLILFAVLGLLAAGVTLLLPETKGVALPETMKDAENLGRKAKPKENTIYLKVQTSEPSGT

hOCT3 = biological target: T2, hOCT3 (Homo sapiens, UniProt O75751); test: Inhibition of hOCT3-mediated substrate uptake in transfected HEK293 cells; details: for In vivo DDI study recommendation, hOCT3: FDA-recommended criteria
T2 construct: expressed in transfected cells
T2 sequence (O75751 1-556): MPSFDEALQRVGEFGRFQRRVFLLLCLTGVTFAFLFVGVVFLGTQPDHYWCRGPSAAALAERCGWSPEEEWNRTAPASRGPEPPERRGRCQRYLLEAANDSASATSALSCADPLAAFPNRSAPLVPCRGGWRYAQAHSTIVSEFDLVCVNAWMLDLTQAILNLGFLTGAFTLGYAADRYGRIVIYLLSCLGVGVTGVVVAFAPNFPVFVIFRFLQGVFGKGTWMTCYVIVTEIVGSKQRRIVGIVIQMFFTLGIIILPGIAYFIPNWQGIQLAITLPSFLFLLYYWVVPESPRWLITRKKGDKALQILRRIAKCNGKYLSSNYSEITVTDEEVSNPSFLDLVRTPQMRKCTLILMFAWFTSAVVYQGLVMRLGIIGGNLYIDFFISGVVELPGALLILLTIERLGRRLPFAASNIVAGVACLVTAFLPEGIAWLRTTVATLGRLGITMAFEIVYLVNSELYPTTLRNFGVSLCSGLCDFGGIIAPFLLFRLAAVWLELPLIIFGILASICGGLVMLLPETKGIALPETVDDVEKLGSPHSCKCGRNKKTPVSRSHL

hMATE1 = biological target: T3, hMATE1 (Homo sapiens, UniProt Q96FL8); test: Inhibition of hMATE1-mediated substrate uptake in transfected HEK293 cells (pH 8.0); details: for In vivo DDI study recommendation, hMATE1: FDA-recommended criteria
T3 construct: expressed in transfected cells
T3 sequence (Q96FL8 1-570): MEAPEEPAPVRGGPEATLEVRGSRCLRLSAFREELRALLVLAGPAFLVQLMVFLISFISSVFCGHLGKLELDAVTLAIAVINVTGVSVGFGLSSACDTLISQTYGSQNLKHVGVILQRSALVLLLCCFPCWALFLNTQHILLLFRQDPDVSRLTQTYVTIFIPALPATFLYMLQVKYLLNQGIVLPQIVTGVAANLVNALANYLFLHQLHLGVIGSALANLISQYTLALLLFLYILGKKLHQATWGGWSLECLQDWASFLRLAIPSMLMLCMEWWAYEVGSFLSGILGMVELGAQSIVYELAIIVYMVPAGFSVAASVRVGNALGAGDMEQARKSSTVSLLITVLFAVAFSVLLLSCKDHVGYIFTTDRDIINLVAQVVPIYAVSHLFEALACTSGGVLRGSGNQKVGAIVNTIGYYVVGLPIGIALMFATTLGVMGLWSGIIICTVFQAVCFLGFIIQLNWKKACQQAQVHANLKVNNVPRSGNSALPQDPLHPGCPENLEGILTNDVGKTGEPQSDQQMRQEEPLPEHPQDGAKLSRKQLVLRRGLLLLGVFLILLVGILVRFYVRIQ

hOCT2 = biological target: T4, hOCT2 (Homo sapiens, UniProt O15244); test: Inhibition of hOCT2-mediated substrate uptake in transfected HEK293 cells; design: expressed in transfected cells; details: for In vivo DDI study recommendation, hOCT2: FDA-recommended criteria
T4 sequence (O15244 1-555): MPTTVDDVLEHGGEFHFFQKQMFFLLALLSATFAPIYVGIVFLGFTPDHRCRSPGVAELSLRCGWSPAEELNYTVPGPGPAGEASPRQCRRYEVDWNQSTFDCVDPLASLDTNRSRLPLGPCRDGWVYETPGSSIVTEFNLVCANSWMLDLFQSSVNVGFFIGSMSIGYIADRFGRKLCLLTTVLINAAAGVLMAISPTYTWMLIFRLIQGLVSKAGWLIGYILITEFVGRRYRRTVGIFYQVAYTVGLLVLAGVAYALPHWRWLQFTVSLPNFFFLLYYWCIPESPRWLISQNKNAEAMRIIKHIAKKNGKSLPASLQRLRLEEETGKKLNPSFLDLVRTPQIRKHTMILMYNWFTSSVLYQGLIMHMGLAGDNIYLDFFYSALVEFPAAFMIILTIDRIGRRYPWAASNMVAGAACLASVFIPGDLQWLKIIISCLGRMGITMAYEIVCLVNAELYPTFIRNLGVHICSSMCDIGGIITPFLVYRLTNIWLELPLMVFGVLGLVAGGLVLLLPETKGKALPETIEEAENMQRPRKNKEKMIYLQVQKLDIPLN

[1] = HEK293, 20 µM inhibitor, 1 µM mIBG, 2 min, 37 °C

Q: How did the IC50 (hOCT1) turn out when `COc1cc(N2CCC(N3CCN(C)CC3)CC2)ccc1Nc1ncc(Cl)c(Nc2ccccc2P(C)(C)=O)n1` [Brigatinib] was run?
A: 1120 ± 40 nM

Q: What about the inhibition at 20 µM (hOCT1; [1]) of the same compound?
A: > 50%

Q: And the “substrate dependency, hOCT1: more potent with metformin than with MPP+” value (hOCT1; IC50 ratio MPP+/metformin)?
A: ~22 fold

Q: And the “substrate dependency, hOCT1: more potent with metformin than with mIBG” value (hOCT1; IC50 ratio mIBG/metformin)?
A: approximately 15 fold

Q: And the IC50 (hOCT1; substrate 1 µM [3H]MPP+, HEK293, 2 min, 37 °C, mean ± SD, read-out: IC50, hOCT1-mediated MPP+ uptake)?
A: 25100 ± 1200 nM

Q: And the IC50 (hOCT1; substrate 1 µM mIBG, HEK293, 2 min, 37 °C, mean ± SD, read-out: IC50, hOCT1-mediated mIBG uptake)?
A: 17100 ± 600 nM

Q: And the “In vivo DDI study recommendation, hOCT1” value (hOCT1; substrate MPP+)?
A: No

Q: What about the “In vivo DDI study recommendation, hOCT1” value (hOCT1; substrate mIBG) of the same compound?
A: No

Q: What about the “In vivo DDI study recommendation, hOCT1” value (hOCT1; substrate metformin) of the same compound?
A: Yes

Q: What about the IC50 (hOCT3) of the same compound?
A: 850 ± 70 nM

Q: And the inhibition at 20 µM (hOCT3; HEK293, read-out: inhibition of mIBG uptake by hOCT3)?
A: > 80%

Q: What about the “substrate dependency, hOCT3: differences in IC50 values across substrates” value (hOCT3; metformin, mIBG, MPP+) of the same compound?
A: up to 3 fold

Q: And the IC50 (hOCT3; substrate 1 µM [3H]MPP+, HEK293, 2 min, 37 °C, mean ± SD, read-out: IC50, hOCT3-mediated MPP+ uptake)?
A: 2540 ± 140 nM

Q: What about the IC50 (hOCT3; substrate 1 µM mIBG, HEK293, 2 min, 37 °C, mean ± SD, read-out: IC50, hOCT3-mediated mIBG uptake) of the same compound?
A: 1200 ± 30 nM

Q: And the “In vivo DDI study recommendation, hOCT3” value (hOCT3; substrate MPP+)?
A: Yes

Q: What about the “In vivo DDI study recommendation, hOCT3” value (hOCT3; substrate mIBG) of the same compound?
A: Yes

Q: And the “In vivo DDI study recommendation, hOCT3” value (hOCT3; substrate metformin)?
A: Yes

Q: And the inhibition at 20 µM (hMATE1; [1])?
A: > 80%

Q: What about the IC50 (hMATE1; IC50, hMATE1-mediated MPP+ uptake, substrate 1 µM [3H]MPP+, HEK293, 2 min, 37 °C, mean ± SD) of the same compound?
A: 2030 ± 240 nM

Q: And the IC50 (hMATE1; IC50, hMATE1-mediated [14C]metformin uptake, Coincubation, coincubation (no preincubation), preincubation study, 8.9 µM [14C]metformin, 2 min uptake)?
A: 1410 ± 60 nM

Q: And the IC50 (hMATE1; IC50, hMATE1-mediated [14C]metformin uptake, Preincubation, 30-min preincubation with inhibitor at 37 °C, 8.9 µM [14C]metformin, 2 min uptake)?
A: 970 ± 90 nM

Q: What about the IC50 (hMATE1; IC50, hMATE1-mediated mIBG uptake, substrate 1 µM mIBG, HEK293, 2 min, 37 °C, mean ± SD) of the same compound?
A: 1930 ± 150 nM

Q: And the IC50 (hMATE1; IC50, hMATE1-mediated metformin uptake, substrate 8.9 µM [14C]metformin, HEK293, 2 min, 37 °C, mean ± SD)?
A: 1670 ± 140 nM

Q: What about the “substrate dependency, hMATE1: differences in IC50 values across substrates” value (hMATE1; metformin, mIBG, MPP+) of the same compound?
A: below two-fold

Q: And the “In vivo DDI study recommendation, hMATE1” value (hMATE1; substrate MPP+)?
A: Yes

Q: What about the “In vivo DDI study recommendation, hMATE1” value (hMATE1; substrate mIBG) of the same compound?
A: Yes

Q: And the “In vivo DDI study recommendation, hMATE1” value (hMATE1; substrate metformin)?
A: Yes

Q: And the IC50 (hOCT2; 30-min preincubation with inhibitor at 37 °C, 8.9 µM [14C]metformin, 2 min uptake, read-out: IC50, hOCT2-mediated [14C]metformin uptake, Preincubation)?
A: 15500 ± 500 nM

Q: What about the IC50 (hOCT2; coincubation (no preincubation), preincubation study, 8.9 µM [14C]metformin, 2 min uptake, read-out: IC50, hOCT2-mediated [14C]metformin uptake, Coincubation) of the same compound?
A: 36000 ± 1100 nM

Q: What about the IC50 (hOCT2; substrate 1 µM [3H]MPP+, HEK293, 2 min, 37 °C, mean ± SD, read-out: IC50, hOCT2-mediated MPP+ uptake) of the same compound?
A: > 300000 nM

Q: What about the IC50 (hOCT2; substrate 1 µM mIBG, HEK293, 2 min, 37 °C, mean ± SD, read-out: IC50, hOCT2-mediated mIBG uptake) of the same compound?
A: > 100000 nM

Q: And the IC50 (hOCT2; substrate 8.9 µM [14C]metformin, HEK293, 2 min, 37 °C, mean ± SD, read-out: IC50, hOCT2-mediated metformin uptake)?
A: 30200 ± 1500 nM

Q: What about the “In vivo DDI study recommendation, hOCT2” value (hOCT2; substrate MPP+) of the same compound?
A: No

Q: What about the “In vivo DDI study recommendation, hOCT2” value (hOCT2; substrate mIBG) of the same compound?
A: No

Q: What about the “In vivo DDI study recommendation, hOCT2” value (hOCT2; substrate metformin) of the same compound?
A: No

Q: What about the “inhibition of hOCT2 (in words)” value (hOCT2; substrates metformin, mIBG, MPP+) of the same compound?
A: not a strong inhibitor
